Columns and labels:
[1] = system: rats with visceral hypersensitivity induced by the butyrate; test: CRD test, role of CB2 and MOR receptors in NCFM-induced analgesia (antagonists) in butyrate-treated rats; type: in vivo, rat; settings: for effect on NCFM-induced analgesia: butyrate-treated rats receiving NCFM 10^9 CFU/day 15 days, antagonist given peritoneally 30 min before CRD (AM630, naloxone methiodide 2 mg/kg); for effect on pain perception in control rats: control rats with butyrate-induced visceral hypersensitivity, no NCFM, AM630 or naloxone methiodide 2 mg/kg, 30 min before CRD
Method: Male Sprague-Dawley rats (Charles River, l'Arbresle, France) weighing 175-200 g were used in this study. Rats were maintained in laboratory conditions for 1 week before experiment. The animals were housed 5 per cage with food and water available ad libitum. All studies were performed in accordance with the proposal of the committee for Research and Ethical Issues of the International Association for the Study of Pain (Zimmermann M, Pain. 1983; 16:109-110). Great care was taken, particularly with regard to housing conditions, to avoid or minimize discomfort to the animals.
For each enema, a catheter (2-mm Fogarty catheter) was placed in the colon at 7 cm from the anus, and the animals received 1 ml of 200 mM of sodium butyrate at neutral pH (pH6.9) twice daily for 3 days. Healthy animals received saline.
Nociception in the animals was assessed by measuring the intracolonic pressure required to induce a behavioral response during colorectal distension (CRD) due to the inflation of a balloon introduced in the colon. This response was characterized by an elevation of the hind part of the animal body and clearly visible abdominal contraction corresponding to the severe contractions (Al Chaer, gastro 2000; Tarrerias, pain 2002; Bourdu et al., 2005). Briefly, rats were anesthetized with volatile anaesthesia (2% isoflurane), the balloon (prepared as previously described in Bourdu & al, 2005) was inserted intrarectally in a minimally invasive manner to 7 cm from the anus, and the catheter was taped to the base of the tail. After 5 minutes, rats were placed in the middle of a 40×40-cm Plexiglas box and the catheter was connected to an electronic barostat apparatus (Synectics Visceral Stimulator; Medtronic, Boulogne-Billancourt, France).
Four groups of animals treated with butyrate were used (n=10/group). Two groups were treated once a day during fifteen days by gastric gavage, 10^9 CFU of NCFM strain and the two other groups of butyrate-treated animals received CarboxyMethyl Cellulose (CMC) by the same route and during the same time. NCFM strain was resuspended in 0.5% CMC (CarboxyMethyl Cellulose, Sigma). Butyrate instillations began 7 days after the first gavage for three days. Colonic hypersensitivity was determined 14 days after the after beginning of oral treatment thus 7 days after colonic instillations. […]
(§1) All experiments were performed in a blind manner by the same experimenter using the block method. Results are expressed as mean±SEM of raw data. Results of CRD testing were analysed using one-way analysis of variance (ANOVA) followed of a Bonferroni post-hoc test to compare several treatments. […]

[2] = system: rats with colonic hypersensitivity induced by butyrate; test: CRD test, probiotic co-administered with suboptimal morphine in rats with butyrate-induced colonic hypersensitivity; type: in vivo, rat; settings: butyrate-treated rats
Method: Male Sprague-Dawley rats (Charles River, l'Arbresle, France) weighing 175-200 g were used in this study. Rats were maintained in laboratory conditions for 1 week before experiment. The animals were housed 5 per cage with food and water available ad libitum. All studies were performed in accordance with the proposal of the committee for Research and Ethical Issues of the International Association for the Study of Pain (Zimmermann M, Pain 1983; 16:109-110). Great care was taken, particularly with regard to housing conditions, to avoid or minimize discomfort to the animals. […]
Nociception in the animals was assessed by measuring the intracolonic pressure required to induce a behavioral response during colorectal distension (CRD) due to the inflation of a balloon introduced in the colon. […]
Four groups of animals treated with butyrate were used (n=10/group). […] Colonic hypersensitivity was determined 14 days after the after beginning of oral treatment thus 7 days after colonic instillations. […]
as §1

[3] = system: rats with colonic hypersensitivity induced by butyrate enemas; settings: rat with visceral hypersensitivity induced by butyrate; known from Bourdu et al; cited from earlier work

| SMILES | effect on NCFM-induced analgesia [1] | effect on pain perception in control rats [1] | pain threshold ([2]; morphine 0.1 mg/kg subcutaneously alone, 30 min before CRD, mean±SEM) | difference on pain threshold vs rats not receiving morphine ([2]; suboptimal dosage of morphine 0.1 mg/kg) | effect on colonic hypersensitivity in CRD test [3] |
| --- | --- | --- | --- | --- | --- |
| COc1ccc(C(=O)c2c(C)n(CCN3CCOCC3)c3cc(I)ccc23)cc1 [AM630] | significantly inhibited | no effect | – | – | – |
| C=CC[N+]1(C)CC[C@]23c4c5ccc(O)c4O[C@H]2C(=O)CC[C@@]3(O)[C@H]1C5 (stereo partly shown) [NLX, naloxone methiodide] | not | no effect | – | – | – |
| CN1CC[C@]23c4c5ccc(O)c4O[C@H]2[C@@H](O)C=C[C@H]3[C@H]1C5 [morphine] | – | – | 41.5±2.4 | No difference | dose-dependent decrease |

— patent US20090311227A1, “Composition” (Danisco A/S, priority 2006, published 2009)
